Measured values taken from patent publication US9126999B2, “Tetrahydropyrazolopyrimidine compounds” (EISAI R&D MANAGEMENT CO., LTD., priority 2012, dated 2015).

Columns and labels:
Human TLR7 = molecular target: T1, Human TLR7 (Homo sapiens, UniProt Q9NYK1); experiment: HEK-293 NF-kappaB luciferase reporter assay, CL097 stimulus; format: cell-based; settings: ligand CL097, analyte NFkB-luciferase
T1 construct: engineered to stably and individually express human TLR4, TLR7 or TLR9 full-length ORF cDNAs; host or cells: HEK-293 (ATCC) with ELAM-1 NF-kappaB luciferase reporter
T1 sequence (Q9NYK1 27-1049): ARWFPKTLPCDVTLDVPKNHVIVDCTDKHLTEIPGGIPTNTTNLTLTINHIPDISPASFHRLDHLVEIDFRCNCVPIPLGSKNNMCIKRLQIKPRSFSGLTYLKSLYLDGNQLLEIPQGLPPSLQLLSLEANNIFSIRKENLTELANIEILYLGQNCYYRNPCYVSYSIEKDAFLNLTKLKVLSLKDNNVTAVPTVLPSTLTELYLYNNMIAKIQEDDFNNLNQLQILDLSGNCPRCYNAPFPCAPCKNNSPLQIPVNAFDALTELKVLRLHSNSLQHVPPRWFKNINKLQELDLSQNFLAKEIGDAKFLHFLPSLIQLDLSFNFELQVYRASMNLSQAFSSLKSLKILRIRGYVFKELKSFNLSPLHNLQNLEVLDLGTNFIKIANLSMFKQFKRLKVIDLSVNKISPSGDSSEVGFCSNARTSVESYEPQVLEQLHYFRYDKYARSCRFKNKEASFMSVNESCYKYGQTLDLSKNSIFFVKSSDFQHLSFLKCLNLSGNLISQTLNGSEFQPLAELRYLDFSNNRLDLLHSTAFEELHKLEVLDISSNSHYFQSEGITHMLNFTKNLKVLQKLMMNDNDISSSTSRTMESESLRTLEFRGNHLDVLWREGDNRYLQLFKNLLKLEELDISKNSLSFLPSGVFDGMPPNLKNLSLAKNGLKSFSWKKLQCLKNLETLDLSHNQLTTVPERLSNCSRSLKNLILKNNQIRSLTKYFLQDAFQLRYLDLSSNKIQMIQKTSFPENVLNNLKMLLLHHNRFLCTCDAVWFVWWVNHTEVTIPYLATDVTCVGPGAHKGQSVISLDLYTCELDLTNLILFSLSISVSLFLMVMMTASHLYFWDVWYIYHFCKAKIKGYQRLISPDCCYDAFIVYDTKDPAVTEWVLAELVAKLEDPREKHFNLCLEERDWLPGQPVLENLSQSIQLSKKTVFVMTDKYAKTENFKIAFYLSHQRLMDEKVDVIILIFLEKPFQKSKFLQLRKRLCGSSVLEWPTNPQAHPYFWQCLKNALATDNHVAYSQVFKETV
From the text: (§1) In vitro pharmacology: HEK-293 cells (ATCC) were engineered to stably express a NF-kappaB transcription factor inducible E-selectin (ELAM-1) luciferase reporter derived from the plasmid pGL3 (Promega) containing base pairs −2241 bp to −254 bp from the promoter of the human E-selectin gene (Accession No. NM_000450). These cells were then subsequently engineered to stably and individually express human TLR4, TLR7 or TLR9 full-length ORF cDNAs. Human TLR4 cDNA (Accession No. NM_138554) was cloned into pcDNA 3.0 expression vector (Invitrogen). TLR4 transfected cells were also engineered to express human MD-2 co-receptor [MD-2 cDNA (Accession No. NM_015364) was cloned into the pEF-BOS vector] and were supplemented with 10 nM soluble CD14 (R&D Systems) in the media to optimize LPS responsiveness. Human TLR9 cDNA (Accession No. NM_017442) was cloned into the pBluescript II KS vector (Agilent). Human TLR7 cDNA (Accession No. NM_016562) was obtained from OriGene. HEK-293 cells stably expressing human TLR8 (Accession No. NM_138636) or mouse TLR7 (Accession No. NM_133211) were purchased from InvivoGen and were then stably transfected with pNiFty2(NF-kappaB)-luciferase reporter plasmid (InvivoGen). Each cell type was plated in Dulbecco's modified Eagle's medium (DMEM) containing 10% fetal bovine serum (FBS) at a density of 2.22×10^5 cells/ml into a 384-well plate and incubated for 2 days at 37° C., 5% CO2. Varying concentrations of antagonist compounds were then added. Cells were then incubated for another 30 minutes before adding the appropriate TLR agonist as follows (final concentrations indicated): lipopolysaccharide (LPS; Sigma) at 10 ng/ml for TLR4, CL097 (InvivoGen) at 3 ug/ml for human TLR7 and TLR8 and mouse TLR7, and CpG-2006-2A [sequence: […] (SEQ ID NO: 1) with phosphorothioate backbone, synthesized by Sigma-Aldrich] at 0.6 uM for TLR9.

Mouse TLR7 = molecular target: T2, Mouse TLR7 (Mus musculus, UniProt P58681); experiment: as above; format: cell-based; settings: ligand CL097, analyte NFkB-luciferase
T2 construct: endogenous in cells; host or cells: female BALB/c mice, in vivo
T2 sequence (P58681 27-1050): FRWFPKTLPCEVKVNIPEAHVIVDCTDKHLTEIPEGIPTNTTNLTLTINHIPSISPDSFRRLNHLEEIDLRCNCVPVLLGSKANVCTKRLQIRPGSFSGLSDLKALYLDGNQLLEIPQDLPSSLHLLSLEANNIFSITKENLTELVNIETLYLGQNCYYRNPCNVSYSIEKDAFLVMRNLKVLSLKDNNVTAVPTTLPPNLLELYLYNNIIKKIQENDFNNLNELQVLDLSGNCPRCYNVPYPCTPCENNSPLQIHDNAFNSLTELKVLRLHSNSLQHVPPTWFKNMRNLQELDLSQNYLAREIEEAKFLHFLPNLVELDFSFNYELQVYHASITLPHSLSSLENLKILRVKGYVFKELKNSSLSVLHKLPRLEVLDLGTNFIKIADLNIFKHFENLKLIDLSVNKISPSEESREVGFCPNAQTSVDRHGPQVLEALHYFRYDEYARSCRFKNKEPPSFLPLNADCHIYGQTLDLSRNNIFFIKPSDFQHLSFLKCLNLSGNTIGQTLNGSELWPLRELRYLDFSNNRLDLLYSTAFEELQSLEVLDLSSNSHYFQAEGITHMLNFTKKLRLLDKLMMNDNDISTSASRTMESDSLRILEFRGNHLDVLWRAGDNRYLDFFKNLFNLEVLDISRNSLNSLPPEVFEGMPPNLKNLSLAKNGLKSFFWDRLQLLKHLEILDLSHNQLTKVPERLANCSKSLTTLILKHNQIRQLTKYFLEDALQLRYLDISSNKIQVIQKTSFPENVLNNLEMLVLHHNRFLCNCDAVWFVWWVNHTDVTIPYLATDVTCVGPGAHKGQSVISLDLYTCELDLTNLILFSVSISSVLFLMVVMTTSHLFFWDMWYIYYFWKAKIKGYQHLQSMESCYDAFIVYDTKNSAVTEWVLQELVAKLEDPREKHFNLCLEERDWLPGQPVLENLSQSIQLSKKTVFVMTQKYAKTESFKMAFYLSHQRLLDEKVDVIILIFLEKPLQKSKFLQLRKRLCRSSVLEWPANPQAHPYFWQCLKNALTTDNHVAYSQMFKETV
From the text: as §1

Question: For `COc1ccc([C@@H]2C[C@H](C(F)(F)F)n3nc(-c4ccc(C(=O)N5CCNCC5)cc4)cc3N2)cc1OC` [ER-892887, (4-((5S,7R)-5-(3,4-dimethoxyphenyl)-7-(trifluoromethyl)-4,5,6,7-tetrahydropyrazolo[1,5-a]pyrimidin-2-yl)phenyl)(piperazin-1-yl)methanone], which IC50 (Human TLR7) is on record?
Answer: The IC50 was 10 nM.

Question: And the IC50 (Mouse TLR7)?
Answer: Its IC50 is 276 nM.
